According to patent publication US20110171329A1, “METHOD FOR TREATMENT OF NEURAL INJURIES” (priority 2009, published 2011):

Key:
[1] = test system: spinal cord mixed neuronal-glial cultures; assay: DCF assay of toxin-induced free radical formation in spinal cord mixed neuronal-glial cultures; type: cell-based, rat
Experimental: (§1) Mixed neuron-glia cell cultures were prepared from the spinal, mesencephalic and cortical regions of an embryonic Sprague-Dawley rat fetus (gestation day 15), respectively, as described in Tsai et al. (Ann. N.Y. Acad. Sci. 1042 (2005):338-348). Briefly, cells were dissociated with a mixture of papain/protease/deoxyribonuclease I (0.1%:0.1%:0.03%) and plated onto poly-lysine coated dishes at a density of 1 to 2×10^5 cells/cm^2 with Dulbecco's modified Eagle's medium (DMEM) supplemented with 10% fetal bovine serum (FBS). On the second day after cell seeding, the cultures were maintained in DMEM+10% FBS or in DMEM supplemented with N2 (Invitrogen, Carlsbad, Calif.) as serum-free medium.
(§2) On the 2nd or 3rd day after cell seeding, the cultures were firstly loaded with 50 μM DCFH-DA in serum-free medium (DMEM+N2) for 1 hr. The medium was then replaced with growth medium containing H2O2 (1 mM) or t-BOOH (0.75 mM) and the cultures were maintained in the growth medium for 2 hrs. HD2 (20 to 200 μg/ml) and baicalein (2 or 10 μM) were then added to the cultures within 10 minutes after the toxin treatment started, respectively. The resulted fluorescent DCF levels were measured by a fluorescence plate reader (ex/em: 485 nm/538 nm). FIGS. 5 and 6 show the results of the measurement.

[2] = test system: cortical mixed neuronal-glial cultures; assay: DCF assay of toxin-induced free radical formation in cortical mixed neuronal-glial cultures; type: cell-based, rat
Experimental: as §1, §2

[3] = H2O2 1 mM, baicalein 2 and 10 μM
[4] = t-BOOH 0.75 mM, baicalein 2 or 10 μM, P<0.01

O=c1cc(-c2ccccc2)oc2cc(O)c(O)c(O)c12 [baicalein]
free radical level induced by H2O2 [1, 3]: significantly reduced | free radical level induced by t-BOOH [1, 4]: significantly inhibited | free radical level induced by H2O2 [2, 3]: significantly reduced | free radical level induced by t-BOOH [2, 4]: significantly inhibited
